Results published in patent US8476197B2, “Aminopropenoates as fungicides” (priority 2009, dated 2013).
Marks after values point to notes of the source that are not given here.

settings: pH 2.3

SMILES | Log P
CCOC(=O)C(C#N)=C(NC(C)C(C)C)c1cccnc1-c1ccc(F)cc1 (centres unmarked) [Compound 1541] | 3.7
CCOC(=O)C(C#N)=C(NC(C)C(C)C)c1cccnc1Br (centres unmarked) [Compound 1545] | 3.27
CCOC(=O)C(C#N)=C(NC(C)C(C)C)c1cccnc1-c1cccc(Cl)c1 (centres unmarked) [Compound 1568] | 4.07
CCOC(=O)C(C#N)=C(NC(C)C1CC1)c1cccnc1OCc1ccccc1 (centres unmarked) [Compound 1570] | 3.08^[c]; 3.08^[b]

same assay, conditions: pH 2.7

SMILES | Log P
CCOC(=O)C(C#N)=C(NC(C)C(C)CC)c1cccnc1Cl (centres unmarked) [Compound 1525] | 3.76^[a]
CCOC(=O)C(C#N)=C(NCc1ccc(C)c(C)n1)c1cccnc1Cl [Compound 1526] | 1.91^[a]
CCOC(=O)C(C#N)=C(NC(C)C(C)OC)c1cccnc1Cl (centres unmarked) [Compound 1527] | 2.8^[a]
CCOC(=O)C(C#N)=C(NC(C)c1cncnc1C(F)(F)F)c1cccnc1Cl (centres unmarked) [Compound 1528] | 2.63^[a]
CCOC(=O)C(C#N)=C(NC(C)c1cn2ccsc2n1)c1cccnc1Cl (centres unmarked) [Compound 1529] | 2.35^[a]
CCOC(=O)C(C#N)=C(NC(C)c1ccccc1Br)c1cccnc1Cl (centres unmarked) [Compound 1530] | 3.89^[a]
CCOC(=O)C(C#N)=C(NC(C)C1CCCO1)c1cccnc1Cl (centres unmarked) [Compound 1531] | 2.71^[a]
CCOC(=O)C(C#N)=C(NC(C)c1ccccc1F)c1cccnc1Cl (centres unmarked) [Compound 1532] | 3.48^[a]
CCOC(=O)C(C#N)=C(NC(C)C1(C)CC1)c1cccnc1Cl (centres unmarked) [Compound 1533] | 3.46^[a]
CCOC(=O)C(C#N)=C(NC(C)c1c(C)cccc1C)c1cccnc1Cl (centres unmarked) [Compound 1534] | 3.96^[a]
CCOC(=O)C(C#N)=C(NC(C)c1c(F)cccc1F)c1cccnc1Cl (centres unmarked) [Compound 1535] | 3.27^[a]
CCOC(=O)C(C#N)=C(NC(C)c1nc(C)cs1)c1cccnc1Cl (centres unmarked) [Compound 1536] | 2.88^[a]
CCOC(=O)C(C#N)=C(Nc1cccc2cn(C)nc12)c1cccnc1Cl [Compound 1537] | 2.68^[a]
CCOC(=O)C(C#N)=C(NC(C)C(=O)OCc1ccccc1)c1cccnc1Cl (centres unmarked) [Compound 1539] | 3.53^[a]
CCOC(=O)C(C#N)=C(NCc1ccc(C)c(C)n1)c1cnn(C)c1Cl [Compound 1542] | 1.66^[a]
CCOC(=O)C(C#N)=C(NC1(c2ccccc2)CCC1)c1cccnc1Cl [Compound 1550] | 3.73^[a]
CCOC(=O)C(C#N)=C(NC1(C(=O)OCC)CCC1)c1cccnc1Cl [Compound 1551] | 3.17^[a]
CCOC(=O)C(C#N)=C(Nc1cccc2scnc12)c1cccnc1Cl [Compound 1553] | 2.61^[a]
CCOC(=O)C(C#N)=C(NCc1ncccc1C(F)(F)F)c1cccnc1Cl [Compound 1554] | 3^[a]
CCOC(=O)C(C#N)=C(Nc1cccc2oc(C)nc12)c1cccnc1Cl [Compound 1555] | 3^[a]
CCOC(=O)C(C#N)=C(Nc1cccc2nsnc12)c1cccnc1Cl [Compound 1556] | 3.17^[a]
CCOC(=O)C(C#N)=C(NC(C)c1c(Cl)cccc1Cl)c1cnn(C)c1Cl (centres unmarked) [Compound 1559] | 3.78^[a]
CCOC(=O)C(C#N)=C(NC(C)C(C)C)c1cn(C)nc1C(Cl)Cl (centres unmarked) [Compound 1562] | 3.46^[a]
CCOC(=O)C(C#N)=C(NC(C)c1nccs1)c1cn(C)nc1C(Cl)Cl (centres unmarked) [Compound 1564] | 2.75^[a]
CCOC(=O)C(C#N)=C(NC1CCC1)c1cn(C)nc1C(Cl)Cl [Compound 1566] | 3.09^[a]
CCOC(=O)C(C#N)=C(NC(C)COC)c1cn(C)nc1C(Cl)Cl (centres unmarked) [Compound 1567] | 2.76^[a]
CC(NC(=C(C#N)C(=O)O)c1cccnc1Cl)c1ccccn1 (centres unmarked) [Compound 1571] | 1.37^[a]
C=CCOC(=O)C(C#N)=C(NC(C)c1ccccn1)c1cccnc1Cl (centres unmarked) [Compound 1572] | 2.66^[a]
CCOC(=O)C(C#N)=C(NC(C)C(=O)NC)c1cn(C)nc1C(Cl)Cl (centres unmarked) [Compound 1573] | 3.9^[a]

same assay, conditions: pH 7.5

SMILES | Log P
CCOC(=O)C(C#N)=C(NC(C)C(C)C)c1cccnc1-c1cccc(Cl)c1 (centres unmarked) [Compound 1568] | 4.09
CCOC(=O)C(C#N)=C(NC(C)C1CC1)c1cccnc1OCc1ccccc1 (centres unmarked) [Compound 1570] | 3.08^[c]; 3.08^[b]
